{
  "source": "patent US8585707B2",
  "about": "“Continuous low irradiance photodynamic therapy method” (priority 2006, dated 2013)",
  "origin": "cited, not measured here",
  "details": "after intravenous administration, attributed to extended half-life",
  "data": [
    {"substance": "Photofrin", "values": [
      {"measurement": "time the level of drug in the tissue remains stable", "value": "over 36 hours"}
    ]}
  ]
}
